Measurements reported in patent US9896421B2, “Compound having skin-whitening, anti-oxidizing and PPAR activities and medical use thereof” (Pusan National University Industry-University Cooperation …, priority 2011, dated 2018).
“Also recorded” adds a separate entry of the source.

Experiments:
[1] = target: T1, PPAR alpha-LBD (Homo sapiens, UniProt Q07869); assay type: binding; details: sample final concentration 100 M (so in the source); compared with fenofibrate (positive control); FIG. 7
T1 construct: 10 μl of 4×PPAR alpha-LBD/Tb-anti-GST antibody
T1 sequence (Q07869 239-466 limits assumed): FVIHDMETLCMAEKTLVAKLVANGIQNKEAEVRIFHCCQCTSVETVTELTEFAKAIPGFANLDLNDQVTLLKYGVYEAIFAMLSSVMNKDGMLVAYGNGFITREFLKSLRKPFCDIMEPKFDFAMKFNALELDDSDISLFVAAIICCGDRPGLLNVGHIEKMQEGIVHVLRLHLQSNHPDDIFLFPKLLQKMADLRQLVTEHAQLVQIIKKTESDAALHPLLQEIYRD

[2] = target: T2, PPAR gamma-LBD (Homo sapiens, UniProt P37231); experiment: PPAR gamma assay (fluormone Pan-PPAR green competition, Tb-anti-GST antibody); assay type: binding; details: sample final concentration 100 M (so in the source); compared with rosiglitazone (positive control); FIG. 8
T2 construct: 10 μl of 4×PPAR gamma-LBD/Tb-anti-GST antibody
T2 sequence (P37231 238-503 limits assumed): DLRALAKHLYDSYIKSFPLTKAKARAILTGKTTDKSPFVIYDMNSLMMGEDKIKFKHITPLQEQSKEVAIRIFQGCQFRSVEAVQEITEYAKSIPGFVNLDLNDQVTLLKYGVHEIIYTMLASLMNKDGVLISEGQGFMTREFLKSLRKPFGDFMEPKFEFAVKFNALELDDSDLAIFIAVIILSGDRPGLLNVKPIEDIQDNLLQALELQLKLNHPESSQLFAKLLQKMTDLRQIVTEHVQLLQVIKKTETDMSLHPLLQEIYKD
Experimental: 20 μl of a sample and 10 μl of 4× fluormone Pan-PPAR green were spread onto 384 well plates, and 10 μl of 4×PPAR alpha-LBD/Tb-anti-GST antibody or 10 μl of 4×PPAR gamma-LBD/Tb-anti-GST antibody were respectively used in PPAR alpha assay and PPAR gamma assay. In this regard, a sample compound was dissolved in such an amount of DMSO that made a final concentration of the sample to be 100 µM, and the DMSO final concentration was maintained within 1%. The reaction mixture was left at room temperature for 2 to 6 hours, and then, the absorption thereof was measured by using a microplate reader (Hewlett Packard) at an excitation wavelength of 340 nm and at an emission wavelength of 485 nm, and at an exitation wavelength of 340 nm and an emission wavelength of 520 nm to calculate a value of 520 nm/485 nm. In this regard, if a negative control was assumed to have an absorption value of 100, a competitive activation rate was defined as follows: 100 minus an absorption value of each sample. That is, the competitive activation rate indicates a binding ratio of the respective samples with respect to the negative control. […]

SMILES: CC1=N/C(=C\c2ccccc2O)C(=O)O1 [Compound 93, (Z)-4-(2-hydroxybenzylidene)-2-methyloxazol-5(4H)-one]
- PPARα activities (competitive activation rate) [1]: very excellent PPARα activation agent compared to fenofibrate; also recorded: simultaneously activates PPARα and PPARγ
- PPARγ activities (competitive activation rate) [2]: simultaneously activates PPARα and PPARγ
